Consider 2 molecules from BindingDB's records for doi:10.1021/ml300038t (2012).

For the experiment, the target named is T1, 4,4'-diapophytoene synthase (Staphylococcus aureus, UniProt A9JQL9).
T1 sequence (A9JQL9 whole entry): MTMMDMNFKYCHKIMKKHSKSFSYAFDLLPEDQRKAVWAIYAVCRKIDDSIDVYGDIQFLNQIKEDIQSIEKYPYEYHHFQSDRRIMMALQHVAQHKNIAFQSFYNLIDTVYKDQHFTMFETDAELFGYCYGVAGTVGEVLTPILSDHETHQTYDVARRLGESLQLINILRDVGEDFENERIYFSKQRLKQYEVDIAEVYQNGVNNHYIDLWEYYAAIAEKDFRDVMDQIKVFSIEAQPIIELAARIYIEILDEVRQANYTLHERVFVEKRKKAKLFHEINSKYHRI
Briefly: Inhibition of Staphylococcus aureus His6-tagged CrtM expressed in Escherichia coli BL21(DE3) using Farnesyl pyrophosphate as substrate incubated for 30 mins prior to substrate addition by continuous spectrophotometric assay.

The term IC50 denotes the concentration at which inhibition is half-maximal. The low end stands for inhibition by little substance, the high end for a need for much substance.

`CCCCCCOc1cccc(CCCNC(=O)CC(=O)C(=O)O)c1` showed an IC50 greater than 300 µM. In turn, `CCCCCCCCOc1ccc(C(=O)CC(=O)C(=O)O)cc1` displayed an IC50 greater than 300 µM.
